Assay results: patent US20250092065A1, “2-(INDAZOL-5-YL)-6-(PIPERIDIN-4-YL)-1,7-NAPHTHYRIDINE DERIVATIVES AND RELATED COMPOUNDS AS MODULATORS FOR SPLICING NUCLEIC ACIDS AND FOR THE TREATMENT OF PROLIFERATIVE DISEASES” (REMIX THERAPEUTICS INC., priority 2022, published 2025)
Read-outs that look alike come from different tables or passages of the source.

How the values were obtained:
Type in all cases: cell-based, human
HTT mRNA = experiment: RT-qPCR splicing assay, HTT mRNA canonical (CJ) and alternative (AJ) junction; details: Homo sapiens; for AC50: HTT alternative junction mRNA, read-out: HTT AJ (increase in AJ mRNA, AC50)
Method in brief: (§1)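 Canonical and alternative-exon junction isoforms were quantified by RT-qPCR in cell lysates, with ΔCt against a housekeeper (GAPDH/GUSB/PPIA), then ΔΔCt vs DMSO, converted to 2^(−ΔΔCt) and percent response. K562 or A673 cells were exposed for 24 h to 11 concentrations (3-fold, top final 10 uM).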

MYB mRNA = experiment: RT-qPCR splicing assay, MYB mRNA canonical (CJ) and alternative (AJ) junction; details: Homo sapiens; for AC50: MYB alternative junction mRNA, read-out: MYB AJ (increase in AJ mRNA, AC50)
Method in brief: as §1

SMN2 mRNA = experiment: RT-qPCR splicing assay, SMN2 mRNA; details: Homo sapiens, canonical junction qPCR panel, Table 4; read-out: SMN2 IC50 (decrease in CJ mRNA levels)
Method in brief: as §1

MYB = experiment: HiBiT protein abundance assay, MYB (K562 HiBiT knock-in); details: HiBiT knock-in K562 cells, 24 hours, top dose 10 μM
Method in brief: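 Luminescence readout: Nano-Glo HiBiT lytic detection after 24 h compound exposure of K562 HiBiT knock-in cells, 10000 cells/well. Dosing 10-pt, 3-fold, top 10 μM final. % response vs untreated parental K562 and DMSO controls; 4PL fit, IC50 = concentration giving 50% protein abundance.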

Target C = experiment: HiBiT protein abundance assay, Target C (K562 HiBiT knock-in); details: HiBiT knock-in K562 cells, 24 hours, top dose 10 μM
Method in brief: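 K562 HiBiT knock-in cells (10000/well) were treated 24 h at 37° C with a 10-point 3-fold dilution series (top 10 μM final, ≤0.25% DMSO). HiBiT luminescence was read after lytic LgBiT detection. Percent response used unmodified K562 and DMSO-treated knock-in controls, and IC50 came from a four-parameter fit at 50% of untreated.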

[1] = HTT canonical junction mRNA, RT-qPCR, read-out: HTT CJ (decrease in CJ mRNA levels, IC50)
[2] = canonical junction qPCR panel, Table 4, read-out: HTT IC50 (decrease in CJ mRNA levels)
[3] = MYB canonical junction mRNA, RT-qPCR, read-out: MYB CJ (decrease in CJ mRNA levels, IC50)
[4] = canonical junction qPCR panel, Table 4, read-out: MYB IC50 (decrease in CJ mRNA levels)

| Compound | AC50 (HTT mRNA; RT-qPCR) | IC50 (HTT mRNA; [1]) | IC50 (HTT mRNA; [2]) | AC50 (MYB mRNA; RT-qPCR) | IC50 (MYB mRNA; [3]) | IC50 (MYB mRNA; [4]) | IC50 (SMN2 mRNA) | IC50 (MYB) | IC50 (Target C) |
| --- | --- | --- | --- | --- | --- | --- | --- | --- | --- |
| Cc1c(O)c(-c2ccc3nc(N4CCC(NC(C)C)C4)ccc3n2)cc2cn(C)nc12 (stereo not drawn) [Compound 318, 5-{6-[3-(isopropylamino)pyrrolidin-1-yl]-1,5-naphthyridin-2-yl}-2,7-dimethylindazol-6-ol] | < 100 nM | < 100 nM | < 100 nM | < 100 nM | < 100 nM | < 100 nM | < 100 nM | < 100 nM | < 100 nM |
| Cc1c(O)c(-c2ccc3nc(N4CC[C@H](NC(C)C)C4)ccc3n2)cc2cn(C)nc12 [Compound 320] | < 100 nM | < 100 nM | < 100 nM | < 100 nM | < 100 nM | < 100 nM | < 100 nM | < 100 nM | < 100 nM |
| Cc1nc2c(F)c(O)c(-c3ccc4nc(N5CCC(NC6(C)CC6)C5)ccc4n3)cc2o1 (stereo not drawn) [Compound 325, 4-fluoro-2-methyl-6-(6-{3-[(1-methylcyclopropyl)amino]pyrrolidin-1-yl}-1,5-naphthyridin-2-yl)-1,3-benzoxazol-5-ol] | < 100 nM | < 100 nM | < 100 nM | < 100 nM | < 100 nM | < 100 nM | < 100 nM | < 100 nM | < 100 nM |
| Cc1nc2c(F)c(O)c(-c3ccc4nc(N5CCC(NC(C)C)C5)ccc4n3)cc2o1 (stereo not drawn) [Compound 328, 4-fluoro-6-{6-[3-(isopropylamino)pyrrolidin-1-yl]-1,5-naphthyridin-2-yl}-2-methyl-1,3-benzoxazol-5-ol] | < 100 nM | < 100 nM | < 100 nM | < 100 nM | < 100 nM | < 100 nM | < 100 nM | < 100 nM | < 100 nM |
| CN[C@@H]1CCN(c2ccc3nc(-c4cc(F)c5nc(C)cn5c4)ncc3n2)C1 [Compound 331, (3R)-1-(2-{8-fluoro-2-methylimidazo[1,2-a]pyridin-6-yl}pyrido[3,2-d]pyrimidin-6-yl)-N-methylpyrrolidin-3-amine] | 100 to 1000 nM | 100 to 1000 nM | 100 to 1000 nM | 100 to 1000 nM | < 100 nM | < 100 nM | < 100 nM | 100 to 1000 nM | 100 to 1000 nM |
| CN[C@H]1CCN(c2ccc3nc(-c4cc(F)c5nc(C)cn5c4)ncc3n2)C1 [Compound 332, (S)-1-(2-(8-fluoro-2-methylimidazo[1,2-a]pyridin-6-yl)pyrido[3,2-d]pyrimidin-6-yl)-N-methylpyrrolidin-3-amine] | 100 to 1000 nM | 100 to 1000 nM | 100 to 1000 nM | 100 to 1000 nM | 100 to 1000 nM | 100 to 1000 nM | < 100 nM | 100 to 1000 nM | 100 to 1000 nM |
| CC(C)(C)NC1CCN(c2ccc3nc(-c4cc5oc(C6CC6)nc5cc4O)ccc3n2)C1 (stereo not drawn) [Compound 333, 6-{6-[3-(tert-butylamino)pyrrolidin-1-yl]-1,5-naphthyridin-2-yl}-2-cyclopropyl-1,3-benzoxazol-5-ol] | 100 to 1000 nM | 100 to 1000 nM | 100 to 1000 nM | 100 to 1000 nM | 100 to 1000 nM | 100 to 1000 nM | 100 to 1000 nM | 100 to 1000 nM | 100 to 1000 nM |
| COCc1nc2cc(O)c(-c3ccc4nc(N5CCC(NC(C)(C)C)C5)ccc4n3)cc2o1 (stereo not drawn) [Compound 334, 6-{6-[3-(tert-butylamino)pyrrolidin-1-yl]-1,5-naphthyridin-2-yl}-2-(methoxymethyl)-1,3-benzoxazol-5-ol] | 100 to 1000 nM | 100 to 1000 nM | 100 to 1000 nM | 100 to 1000 nM | 100 to 1000 nM | 100 to 1000 nM | 100 to 1000 nM | 100 to 1000 nM | 100 to 1000 nM |
| COc1cc2nc(C3COC3)oc2cc1-c1ccc2nc(N3CCC(NC(C)(C)C)C3)ccc2n1 (stereo not drawn) [Compound 335] | 1000 to 10000 nM | 1000 to 10000 nM | 1000 to 10000 nM | 1000 to 10000 nM | 1000 to 10000 nM | 1000 to 10000 nM | 1000 to 10000 nM | 1000 to 10000 nM | 1000 to 10000 nM |
